Values of other authors as cited in article PMC3328449, “Inhibition of Diacylglycerol–Sensitive TRPC Channels by Synthetic and Natural Steroids” (PLoS ONE, 2012).
pIC50: −log10 of the molar value.

Columns and labels:
[1] = tested on: TRPC3; design: method as in PMID 19289841; conditions: read-out: half maximal inhibitory concentration (IC50), TRPC3; cited from earlier work
[2] = tested on: other TRPC channels; design: method as in PMID 19289841; conditions: cited from earlier work

## CCOC(=O)c1cnn(-c2ccc(NC(=O)C(Cl)=C(Cl)Cl)cc2)c1C(F)(F)F [Pyr3]
[1]
  pIC50: 6.15
[2]
  Effects on other TRPC channels: without having effects
